Values of other authors in EP3933036B1, “PROCESS FOR 7-BETA-HYDROXYLATION OF BILE ACID DERIVATIVES” (MICROMUN Institut für Mikrobiologische Forschung GmbH, priority 2020, dated 2022).

conditions: at 298 K

Row | octanol/water partition coefficient (KOW) | Structure (SMILES)
1 | 2 | C[S+](C)[O-] [DMSO]
2 | 11 | CCOC(C)=O [ethyl acetate]

Row | Structure (SMILES) | octanol/water partition coefficient (KOW)
3 | CC#N [acetonitrile] | 2
